Test results taken from ChEMBL document CHEMBL3885881, “DrugMatrix”.

Species on record: Rattus norvegicus
Assay: DrugMatrix - Regimen: Daily Repeat
Assay type: toxicity, organism-based, Sprague-Dawley
Parameters: regimen Daily Repeat, gender Male, age 6-8 weeks
Settings: in vivo, po, route oral GAVAGE, […]; for ABSOLUTE BASOPHIL / ABSOLUTE EOSINOPHIL / ABSOLUTE LYMPHOCYTE / ABSOLUTE SEGMENTED NEUTROPHIL / BASOPHIL / EOSINOPHIL / ERYTHROCYTE COUNT / HEMOGLOBIN / LEUKOCYTE COUNT / LYMPHOCYTE / MEAN CORPUSCULAR HEMOGLOBIN / MEAN CORPUSCULAR HEMOGLOBIN CONCENTRATION / MEAN CORPUSCULAR VOLUME / MONOCYTE / NEUTROPHIL / NUCLEATED RED BLOOD CELLS / PLATELET COUNT: tissue Blood; for ALANINE AMINOTRANSFERASE / ALBUMIN / ALKALINE PHOSPHATASE / ASPARTATE AMINOTRANSFERASE / BLOOD UREA NITROGEN / CARBON DIOXIDE / CHLORIDE / CHOLESTEROL / CREATINE PHOSPHOKINASE / CREATININE / GLUCOSE / LACTATE DEHYDROGENASE / LIPASE / PHOSPHORUS / POTASSIUM / SODIUM / TOTAL BILIRUBIN / URIC ACID: tissue Plasma
[1] = 20 mg/kg, 72 h, dose level Low, time 3 day
[2] = 20 mg/kg, 120 h, dose level Low, time 5 day
[3] = 600 mg/kg, 72 h, dose level High, time 3 day
[4] = 600 mg/kg, 120 h, dose level High, time 5 day

CCCN(CCC)S(=O)(=O)c1ccc(C(=O)O)cc1 [PROBENECID]
ABSOLUTE BASOPHIL [1]: 0 CELLS/uL | ABSOLUTE EOSINOPHIL [1]: 143 CELLS/uL | ABSOLUTE LYMPHOCYTE [1]: 13997.67 CELLS/uL | ABSOLUTE SEGMENTED NEUTROPHIL [1]: 1155.67 CELLS/uL | BASOPHIL [1]: 0% | EOSINOPHIL [1]: 1% | ERYTHROCYTE COUNT [1]: 5.57 x10E6/uL | HEMOGLOBIN [1]: 13.7 G/DL | LEUKOCYTE COUNT [1]: 15.43 x10E3/uL | LYMPHOCYTE [1]: 90.33% | MEAN CORPUSCULAR HEMOGLOBIN [1]: 24.67 pg | MEAN CORPUSCULAR HEMOGLOBIN CONCENTRATION [1]: 39.3 G/DL | MEAN CORPUSCULAR VOLUME [1]: 62.8 fL | MONOCYTE [1]: 1% | NEUTROPHIL [1]: 7.67% | NUCLEATED RED BLOOD CELLS [1]: 0 /100WBC | PLATELET COUNT [1]: 1224.33 x10E3/uL | ALANINE AMINOTRANSFERASE [1]: 70 u/L | ALBUMIN [1]: 4 G/DL | ALKALINE PHOSPHATASE [1]: 531.67 u/L | ASPARTATE AMINOTRANSFERASE [1]: 87.67 u/L | BLOOD UREA NITROGEN [1]: 11 mg/dL | CARBON DIOXIDE [1]: 33.67 mmol/L | CHLORIDE [1]: 100.67 MEQ/L | CHOLESTEROL [1]: 81 mg/dL | CREATINE PHOSPHOKINASE [1]: 196.67 u/L | CREATININE [1]: 0.13 mg/dL | GLUCOSE [1]: 157.33 mg/dL | LACTATE DEHYDROGENASE [1]: 142.33 u/L | LIPASE [1]: 10.67 u/L | PHOSPHORUS [1]: 10.83 mg/dL | POTASSIUM [1]: 6.5 MEQ/L | SODIUM [1]: 141.87 MEQ/L | TOTAL BILIRUBIN [1]: 0.13 mg/dL | URIC ACID [1]: 1.4 mg/dL | ABSOLUTE BASOPHIL [2]: 0 CELLS/uL | ABSOLUTE EOSINOPHIL [2]: 118.67 CELLS/uL | ABSOLUTE LYMPHOCYTE [2]: 12848.33 CELLS/uL | ABSOLUTE SEGMENTED NEUTROPHIL [2]: 894.33 CELLS/uL | BASOPHIL [2]: 0% | EOSINOPHIL [2]: 0.67% | ERYTHROCYTE COUNT [2]: 5.43 x10E6/uL | HEMOGLOBIN [2]: 13.5 G/DL | LEUKOCYTE COUNT [2]: 14.13 x10E3/uL | LYMPHOCYTE [2]: 91% | MEAN CORPUSCULAR HEMOGLOBIN [2]: 25.03 pg | MEAN CORPUSCULAR HEMOGLOBIN CONCENTRATION [2]: 39.73 G/DL | MEAN CORPUSCULAR VOLUME [2]: 62.93 fL | MONOCYTE [2]: 2% | NEUTROPHIL [2]: 6.33% | NUCLEATED RED BLOOD CELLS [2]: 0 /100WBC | PLATELET COUNT [2]: 1072.33 x10E3/uL | ALANINE AMINOTRANSFERASE [2]: 70.67 u/L | ALBUMIN [2]: 3.97 G/DL | ALKALINE PHOSPHATASE [2]: 404.33 u/L | ASPARTATE AMINOTRANSFERASE [2]: 114.67 u/L | BLOOD UREA NITROGEN [2]: 13.67 mg/dL | CARBON DIOXIDE [2]: 29.67 mmol/L | CHLORIDE [2]: 102 MEQ/L | CHOLESTEROL [2]: 63.33 mg/dL | CREATINE PHOSPHOKINASE [2]: 910.33 u/L | CREATININE [2]: 0.19 mg/dL | GLUCOSE [2]: 178 mg/dL | LACTATE DEHYDROGENASE [2]: 364 u/L | LIPASE [2]: 10.33 u/L | PHOSPHORUS [2]: 11.13 mg/dL | POTASSIUM [2]: 6.49 MEQ/L | SODIUM [2]: 141.5 MEQ/L | TOTAL BILIRUBIN [2]: 0.23 mg/dL | URIC ACID [2]: 1.67 mg/dL | ABSOLUTE BASOPHIL [3]: 0 CELLS/uL | ABSOLUTE EOSINOPHIL [3]: 106 CELLS/uL | ABSOLUTE LYMPHOCYTE [3]: 14409.67 CELLS/uL | ABSOLUTE SEGMENTED NEUTROPHIL [3]: 2126 CELLS/uL | BASOPHIL [3]: 0% | EOSINOPHIL [3]: 0.67% | ERYTHROCYTE COUNT [3]: 5.2 x10E6/uL | HEMOGLOBIN [3]: 13.4 G/DL | LEUKOCYTE COUNT [3]: 16.7 x10E3/uL | LYMPHOCYTE [3]: 86.33% | MEAN CORPUSCULAR HEMOGLOBIN [3]: 25.73 pg | MEAN CORPUSCULAR HEMOGLOBIN CONCENTRATION [3]: 40.6 G/DL | MEAN CORPUSCULAR VOLUME [3]: 63.43 fL | MONOCYTE [3]: 0.33% | NEUTROPHIL [3]: 12.67% | NUCLEATED RED BLOOD CELLS [3]: 0.33 /100WBC | PLATELET COUNT [3]: 1182.33 x10E3/uL | ALANINE AMINOTRANSFERASE [3]: 83.67 u/L | ALBUMIN [3]: 3.93 G/DL | ALKALINE PHOSPHATASE [3]: 534.33 u/L | ASPARTATE AMINOTRANSFERASE [3]: 87 u/L | BLOOD UREA NITROGEN [3]: 11 mg/dL | CARBON DIOXIDE [3]: 27.67 mmol/L | CHLORIDE [3]: 99.67 MEQ/L | CHOLESTEROL [3]: 58 mg/dL | CREATINE PHOSPHOKINASE [3]: 599.67 u/L | CREATININE [3]: 0.18 mg/dL | GLUCOSE [3]: 155.67 mg/dL | LACTATE DEHYDROGENASE [3]: 259.33 u/L | LIPASE [3]: 10.33 u/L | PHOSPHORUS [3]: 10.97 mg/dL | POTASSIUM [3]: 6.4 MEQ/L | SODIUM [3]: 139.6 MEQ/L | TOTAL BILIRUBIN [3]: 0.27 mg/dL | URIC ACID [3]: 1.33 mg/dL | ABSOLUTE BASOPHIL [4]: 0 CELLS/uL | ABSOLUTE EOSINOPHIL [4]: 58.67 CELLS/uL | ABSOLUTE LYMPHOCYTE [4]: 15278 CELLS/uL | ABSOLUTE SEGMENTED NEUTROPHIL [4]: 1476.33 CELLS/uL | BASOPHIL [4]: 0% | EOSINOPHIL [4]: 0.33% | ERYTHROCYTE COUNT [4]: 6 x10E6/uL | HEMOGLOBIN [4]: 14.33 G/DL | LEUKOCYTE COUNT [4]: 16.87 x10E3/uL | LYMPHOCYTE [4]: 90.67% | MEAN CORPUSCULAR HEMOGLOBIN [4]: 23.93 pg | MEAN CORPUSCULAR HEMOGLOBIN CONCENTRATION [4]: 39.6 G/DL | MEAN CORPUSCULAR VOLUME [4]: 60.4 fL | MONOCYTE [4]: 0.33% | NEUTROPHIL [4]: 8.67% | NUCLEATED RED BLOOD CELLS [4]: 0 /100WBC | PLATELET COUNT [4]: 1128.33 x10E3/uL | ALANINE AMINOTRANSFERASE [4]: 55.67 u/L | ALBUMIN [4]: 4.37 G/DL | ALKALINE PHOSPHATASE [4]: 404.67 u/L | ASPARTATE AMINOTRANSFERASE [4]: 96.33 u/L | BLOOD UREA NITROGEN [4]: 20.33 mg/dL | CARBON DIOXIDE [4]: 31 mmol/L | CHLORIDE [4]: 101.67 MEQ/L | CHOLESTEROL [4]: 55.33 mg/dL | CREATINE PHOSPHOKINASE [4]: 902 u/L | CREATININE [4]: 0.25 mg/dL | GLUCOSE [4]: 169 mg/dL | LACTATE DEHYDROGENASE [4]: 213.67 u/L | LIPASE [4]: 10 u/L | PHOSPHORUS [4]: 10.3 mg/dL | POTASSIUM [4]: 5.85 MEQ/L | SODIUM [4]: 142.7 MEQ/L | TOTAL BILIRUBIN [4]: 0.27 mg/dL | URIC ACID [4]: 1.8 mg/dL
